{"source": "patent US20040141944A1", "about": "“Inhibition of xenoreactive antibodies” (priority 1998, published 2004)", "key": {"[1]": {"test_system": "anti-Gal antibodies in baboon serum", "assay": "competition ELISA, inhibition of xenoreactive antibody activity (IC50)", "assay_type": "binding", "conditions": "for IC50 (FIG. 24): mass per volume of polymer, new pipette tip for each addition", "experimental": "Principle of the assay: A competition ELISA was set up in such a way that Gal-molecules linked to human serum albumin and immobilized onto a microtiter plate and Gal-molecules linked to PEG compete for anti-Gal antibodies in baboon serum. The antibodies binding to the Gal-HSA were visualized using secondary antibodies to these antibodies with appropriate color development agents. The color in the case in which no Gal-PEG was added was defined as 100%. The IC50 was defined, for FIG. 3, as the concentration of Gal-PEG needed to inhibit 50% of the color development when trying to detect antibodies immobilized onto the Gal-HSA plate. For FIG. 24, the IC50 is defined in terms of mass per volume, e.g. mg/mL, of polymer.\nBriefly, a 96 well microtiter was coated with 100 ul/well of a 30 ug/mL solution of αGal(1,3)Gal β 1-4 GlcNAc-human serum albumin (Gal-HSA) and incubated for 90 minutes at room temperature. After incubation with Gal-HSA, the plate was blocked with 1% HSA in PBS for 60 minutes.\nWhile the microtiter plate was coated and blocked, samples were prepared as follows: Fifteen different dilution solutions were prepared for 1 plate. The first dilution solution was 1% HSA in PBS. […] were obtained by preparing a 2.5 mL stock solution of 10 mM αGal(1,3)Gal β 1-4 GlcNAc in 1% HSA/PBS and then serially diluting 1/10 three times. Dilution solutions 6-15 were obtained by preparing a 2.5 mL stock solution of the first concentration of modified PEG and then serially diluting 1/10 nine times in 1% HSA in PBS.\nThe plate was incubated for 90 minutes at 4° C. The plate was washed five times with PBS containing 0.5% Tween 20 and blot dried.\nWhen assaying for xenoreactive IgM, 100 ul/well of Goat anti-human IgM-biotin antibody, diluted 1/4000 in 1% HSA/PBS, was added.\nWhen assaying for xenoreactive IgG, 100 ul/well of Goat anti-human IgG-biotin antibody, diluted 1/4000 in 1% HSA/PBS, was added.\nThe biotinylated secondary antibody was incubated for one hour at 4° C. and afterwards the plate was washed five times with PBS containing 0.5% Tween 20 and blot dried. Hereafter, 100 ul/well streptavidin-alkaline phosphatase conjugate was added at a dilution of 1/4000 in 1% HSA/PBS and incubated for 30 minutes at room temperature. The microtiter plate was washed five times with PBS containing 0.5% Tween 20 and blot dried. 150 ul developer per well was added and the plate incubated for 30 minutes at room temperature. The color development was stopped by addition of 40 ul/well of 3 M NaOH. The plate was read in a plate reader at wavelength of 405 nm.\nThe IC50 data was calculated from the percent inhibition from the dilution of baboon control in 1% HSA/PBS which gave this highest point within the linear range.\n% Inhibition=(([OD of BC in HSA]−[OD of BC in αGal(1,3)Gal β 1-4 GlcNAc or PEG-(αGal(1,3)Gal β 1-4 GlcNAc)x])/OD of BC in HSA)*100"}, "[2]": {"test_system": "α-gal antibody secreting cells (ASCs)", "assay": "810S vs immunoapheresis: peripheral α-gal antibody secreting cells (ELISPOT)", "assay_type": "in vivo, baboon", "experimental": "(§1) FIG. 34 compares the IgG response between IP and TPC (810) treated baboons. Baboons were either treated with 810S (50 mg/kg) every 3 days for a total of 6 treatments, or underwent a total of 6 immunoapheresis treatments using α-gal columns every 3 days. Peripheral blood mononuclear cells were collected and analyzed for the number of cells secreting IgG antibodies directed against α-gal using an ELISPOT analysis. The fold-change in antibody secreting cells (ASCs) was calculated by normalizing to baseline values. Values are represented as the mean from 3 baboons per group.\nas §1, with “35” for “34”, “IgM” for “IgG”\n(§2) A total of 6 baboons were used. Three baboons (designated 51-98, 48-98 and 47-98) underwent immunoapheresis (IP) using α-gal columns, with plasma from 3 blood volumes being passed over the columns every 3 days for a total of 6 treatments. Three other baboons (designated 46-98, 52-98, 50-98) received IV infusions of 810S at 50 mg/kg every 3 days for a total of 6 treatments. No immunosuppression or exposure to pig organs was included in the protocol.\n(§3) In both groups, serum samples and blood were collected to measure α-gal antibody levels and ASCs during the treatment period and during a follow-up period out to approximately 150-180 days."}, "[3]": {"test_system": "IgM and IgG antibodies directed against the α-gal epitope (XNA)", "assay": "810S vs immunoapheresis: circulating α-gal antibodies (serum ELISA)", "assay_type": "in vivo, baboon", "experimental": "(§4) FIG. 26 is a graph of IgM XNA Levels: 810S vs IP-treated baboons. Baboons were either treated with 810S (50 mg/kg) every 3 days for a total of 6 treatments, or underwent a total of 6 immunoapheresis treatments using α-gal columns every 3 days. Serum from each baboon was analyzed by ELISA for IgM antibodies directed against the α-gal epitope. The percent IgM XNAs remaining were calculated using baseline values from each animal as 100%.\nas §4, with “FIG. 27” for “FIG. 26”, “of IgG” for “of IgM”, “for IgG” for “for IgM”, “the a -gal” for “the α-gal”\nas §2, §3"}, "total IgM and total IgG": {"test_system": "total IgM and total IgG", "assay": "810S-treated baboons: total IgM and total IgG by ELISA", "assay_type": "in vivo, baboon", "conditions": "all 3 animals, throughout the experiment", "experimental": "FIG. 28 is a graph of baboon 46-98 antibody response to 810S. Baboon 46-98 was treated with 810S (50 mg/kg) every 3 days for a total of 6 treatments. Serum was analyzed for IgM and IgG antibodies directed against the α-gal epitope (XIgM or XIgG), as well as for total IgM (TotIgM) or total IgG (TotIgG) by ELISA. The percent antibody remaining was calculated using baseline values as 100%.\nas §2"}, "[4]": {"assay": "presence of 810S in baboon serum at day 30 (competition with human XNA binding to GAL-HSA)", "assay_type": "in vivo", "conditions": "day 30 serum", "source_text": "To investigate whether 810S was still in baboon serum by day 30, serum was mixed with human serum and analyzed by ELISA for competition with human XNA binding to GAL-HSA."}, "[5]": {"conditions": "50 mg/kg IV every 3 days, after the final (6th) treatment"}}, "note": "Read-outs that look alike come from different tables or passages of the source.", "data": [{"compound": "CC(=O)N[C@H]1C(O)O[C@H](CO)[C@@H](O[C@@H]2O[C@H](CO)[C@H](O)[C@H](O[C@H]3O[C@H](CO)[C@H](O)[C@H](O)[C@H]3O)[C@H]2O)[C@@H]1O", "note": "(stereo partly drawn) [free sugar, αGal(1,3)Gal β 1-4 GlcNAc, reference compound]", "values": [{"measurement": "IC50", "setting": "[1]", "value": 50000, "unit": "µg/mL"}]}, {"compound": "(αGal(1,3)Gal β 1-4 GlcNAc)8, PEG [Example 810E]", "values": [{"measurement": "IC50 (FIG. 24)", "setting": "[1]", "value": 100000, "unit": "ng/mL"}]}, {"compound": "(αGal(1,3)Gal β 1-4 GlcNAc)8-PEG [Example 410L]", "values": [{"measurement": "IC50", "setting": "[1]", "value": 500, "unit": "µg/mL"}, {"measurement": "times more effective per coupled sugar than the free sugar", "setting": "[1]; from IC50 of 410L versus free sugar", "value": 100, "unit": "times"}]}, {"compound": "(αGal(1,3)Gal β 1-4 GlcNAc)8-PEG [Example 810S]", "values": [{"measurement": "IgM and IgG ASC levels, % of initial levels", "setting": "[2]; 1 week after day 30", "value": "about 62%"}, {"measurement": "IgM and IgG ASCs, % of starting levels", "setting": "[2]; after the sixth treatment", "value": "3-6%"}, {"measurement": "IgM and IgG ASCs, % initial levels", "setting": "[2]; by the fourth treatment", "value": "about 10%"}, {"measurement": "IgM and IgG ASC levels, % of initial levels", "setting": "[2]; by the second treatment with 810S", "value": "20-40%"}, {"measurement": "IgM and IgG ASC levels, % of initial levels", "setting": "[2]; day 30, 2 weeks after 810S treatment was terminated", "value": "about 38%"}, {"measurement": "IgG XNA levels, % of baseline values", "setting": "[3]; [5]", "value": "1-9%"}, {"measurement": "IgM XNA levels, % of baseline values", "setting": "[3]; [5]", "value": "1-3%"}, {"measurement": "circulating IgG and IgM XNA levels, % of initial levels", "setting": "[3]; 50 mg/kg IV, after the 1st treatment, all 3 baboons", "value": "1-13%"}, {"measurement": "IgG XNA levels, % of baseline values", "setting": "[3]; by day 30", "value": "20-33%"}, {"measurement": "IgM XNA levels, % of baseline values", "setting": "[3]; by day 30", "value": "8-18%"}, {"measurement": "IgG XNA levels, % of baseline values", "setting": "[3]; day 184, 2 810S-treated baboons", "value": "30-38%"}, {"measurement": "IgM XNA levels, % of baseline levels", "setting": "[3]; day 184, 3rd baboon", "value": 60, "unit": "%"}, {"measurement": "IgG XNA levels", "setting": "[3]; day 184, one (3rd) baboon", "value": "returned to baseline"}, {"measurement": "IgM XNA levels, % of baseline values", "setting": "[3]; day 184, the other 2 baboons", "value": "24-39%"}, {"measurement": "total IgM and IgG levels", "setting": "total IgM and total IgG", "value": "remained relatively constant"}, {"measurement": "IC50", "setting": "[1]; approximate, 810 S and its diafiltration fractions (Example 30)", "value": 0.005, "unit": "µg/mL"}, {"measurement": "IC50 (FIG. 24)", "setting": "[1]", "value": 500, "unit": "ng/mL"}, {"measurement": "810S still in baboon serum", "setting": "[4]", "value": "not still in circulation"}]}]}
